PubChem BioAssay AID1963836 (Molecular Pharmacology Branch, DTP, NCI, 2024)

System: 857933-349-R-J2-PDC complex spheroid viability
Assay: Anticancer human tumor 857933-349-R-J2-PDC patient-derived colon adenocarcinoma cell line growth inhibition [POLQ]
Details: for IC50: curve of first compound; for viability, T/C: stronger effect = lower value
In short: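 Three-cell-type spheroids modelling solid tumor plus stroma served as the readout system; POL inhibitors were tested individually and in combination, concentration ranges set by clinical Cmax where known.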

[1] = second compound 0.0316 µM, first compound 0.0316 µM
[2] = second compound 0.0316 µM, first compound 0.1 µM
[3] = second compound 0.0316 µM, first compound 0.316 µM
[4] = second compound 0.0316 µM, first compound 1 µM
[5] = second compound 0.0316 µM, first compound 3.16 µM
[6] = second compound 0.0316 µM, first compound 10 µM
[7] = second compound 0.1 µM, first compound 0.0316 µM
[8] = second compound 0.1 µM, first compound 0.1 µM
[9] = second compound 0.1 µM, first compound 0.316 µM
[10] = second compound 0.1 µM, first compound 1 µM
[11] = second compound 0.1 µM, first compound 3.16 µM
[12] = second compound 0.1 µM, first compound 10 µM
[13] = second compound 0.316 µM, first compound 0.0316 µM
[14] = second compound 0.316 µM, first compound 0.1 µM
[15] = second compound 0.316 µM, first compound 0.316 µM
[16] = second compound 0.316 µM, first compound 1 µM
[17] = second compound 0.316 µM, first compound 3.16 µM
[18] = second compound 0.316 µM, first compound 10 µM
[19] = second compound 1 µM, first compound 0.0316 µM
[20] = second compound 1 µM, first compound 0.1 µM
[21] = second compound 1 µM, first compound 0.316 µM
[22] = second compound 1 µM, first compound 1 µM
[23] = second compound 1 µM, first compound 3.16 µM
[24] = second compound 1 µM, first compound 10 µM
[25] = second compound 3.16 µM, first compound 0.0316 µM
[26] = second compound 3.16 µM, first compound 0.1 µM
[27] = second compound 3.16 µM, first compound 0.316 µM
[28] = second compound 3.16 µM, first compound 1 µM
[29] = second compound 3.16 µM, first compound 3.16 µM
[30] = second compound 3.16 µM, first compound 10 µM
[31] = second compound 10 µM, first compound 0.0316 µM
[32] = second compound 10 µM, first compound 0.1 µM
[33] = second compound 10 µM, first compound 0.316 µM
[34] = second compound 10 µM, first compound 1 µM
[35] = second compound 10 µM, first compound 3.16 µM
[36] = second compound 10 µM, first compound 10 µM
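Further: spheroids exposed to compounds for seven days before readout.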

CNCc1ccc(-c2[nH]c3cc(F)cc4c3c2CCNC4=O)cc1 + Nc1ccc(C#CCN(C(=O)Cc2ncc(C(F)(F)F)cc2C(F)(F)F)c2ccc(F)cc2)nn1
IC50 (second compound 0.0316 µM): > 10000 nM
IC50 (second compound 0.1 µM): > 10000 nM
IC50 (second compound 0.316 µM): > 10000 nM
IC50 (second compound 1 µM): > 10000 nM
IC50 (second compound 3.16 µM): > 10000 nM
IC50 (second compound 10 µM): > 10000 nM
viability, T/C [1]: 91.7%
viability, T/C [2]: 101%
viability, T/C [3]: 92%
viability, T/C [4]: 97.1%
viability, T/C [5]: 101%
viability, T/C [6]: 98.2%
viability, T/C [7]: 94.5%
viability, T/C [8]: 78.7%
viability, T/C [9]: 85.6%
viability, T/C [10]: 110%
viability, T/C [11]: 103%
viability, T/C [12]: 93.7%
viability, T/C [13]: 103%
viability, T/C [14]: 102%
viability, T/C [15]: 95.3%
viability, T/C [16]: 94.9%
viability, T/C [17]: 107%
viability, T/C [18]: 90.6%
viability, T/C [19]: 93.4%
viability, T/C [20]: 101%
viability, T/C [21]: 98.9%
viability, T/C [22]: 107%
viability, T/C [23]: 94.3%
viability, T/C [24]: 98.2%
viability, T/C [25]: 96.3%
viability, T/C [26]: 84.9%
viability, T/C [27]: 92.1%
viability, T/C [28]: 104%
viability, T/C [29]: 97.7%
viability, T/C [30]: 101%
viability, T/C [31]: 91.6%
viability, T/C [32]: 99%
viability, T/C [33]: 91.2%
viability, T/C [34]: 93%
viability, T/C [35]: 100%
viability, T/C [36]: 92%

C=CCn1c(=O)c2cnc(Nc3ccc(N4CCN(C)CC4)cc3)nc2n1-c1cccc(C(C)(C)O)n1 + COC1C(OC(N)=O)C(O)C(Oc2ccc3c(O)c(NC(=O)c4ccc(O)c(CC=C(C)C)c4)c(=O)oc3c2C)OC1(C)C
IC50 (second compound 0.0316 µM): > 1000 nM
IC50 (second compound 0.1 µM): > 1000 nM
IC50 (second compound 0.316 µM): > 1000 nM
IC50 (second compound 1 µM): > 1000 nM
IC50 (second compound 3.16 µM): > 1000 nM
IC50 (second compound 10 µM): > 1000 nM
viability, T/C (second compound 0.0316 µM, first compound 0.00316 µM): 89.8%
viability, T/C (second compound 0.0316 µM, first compound 0.01 µM): 96.5%
viability, T/C [1]: 76.7%
viability, T/C [2]: 81.7%
viability, T/C [3]: 84.6%
viability, T/C [4]: 80.9%
viability, T/C (second compound 0.1 µM, first compound 0.00316 µM): 97.9%
viability, T/C (second compound 0.1 µM, first compound 0.01 µM): 106%
viability, T/C [7]: 112%
viability, T/C [8]: 89.4%
viability, T/C [9]: 74.3%
viability, T/C [10]: 64.7%
viability, T/C (second compound 0.316 µM, first compound 0.00316 µM): 92.4%
viability, T/C (second compound 0.316 µM, first compound 0.01 µM): 95.3%
viability, T/C [13]: 91%
viability, T/C [14]: 78.8%
viability, T/C [15]: 79.2%
viability, T/C [16]: 64.1%
viability, T/C (second compound 1 µM, first compound 0.00316 µM): 102%
viability, T/C (second compound 1 µM, first compound 0.01 µM): 80.4%
viability, T/C [19]: 88.7%
viability, T/C [20]: 87.3%
viability, T/C [21]: 95.8%
viability, T/C [22]: 61.8%
viability, T/C (second compound 3.16 µM, first compound 0.00316 µM): 92%
viability, T/C (second compound 3.16 µM, first compound 0.01 µM): 86.6%
viability, T/C [25]: 74.6%
viability, T/C [26]: 74.2%
viability, T/C [27]: 91.1%
viability, T/C [28]: 77.5%
viability, T/C (second compound 10 µM, first compound 0.00316 µM): 83.8%
viability, T/C (second compound 10 µM, first compound 0.01 µM): 86.8%
viability, T/C [31]: 91.8%
viability, T/C [32]: 72.5%
viability, T/C [33]: 83.9%
viability, T/C [34]: 67.5%

COc1cc(C2c3cc4c(cc3C(OC3OC5COC(C)OC5C(O)C3O)C3COC(=O)C23)OCO4)cc(OC)c1O (stereo unspecified) + Cc1cccc(N(C)C(=O)C2C(O)CCN2c2nc(C)cc(C(F)(F)F)c2C#N)c1
IC50 (second compound 0.0316 µM): 725 nM
IC50 (second compound 0.1 µM): 547 nM
IC50 (second compound 0.316 µM): 797 nM
IC50 (second compound 1 µM): 541 nM
IC50 (second compound 3.16 µM): 240 nM
IC50 (second compound 10 µM): 323 nM
viability, T/C [1]: 86.1%
viability, T/C [2]: 81.9%
viability, T/C [3]: 60%
viability, T/C [4]: 47%
viability, T/C [5]: 37.1%
viability, T/C [6]: 33.9%
viability, T/C [7]: 111%
viability, T/C [8]: 92.6%
viability, T/C [9]: 51.5%
viability, T/C [10]: 49.3%
viability, T/C [11]: 42.4%
viability, T/C [12]: 27.2%
viability, T/C [13]: 83.2%
viability, T/C [14]: 83%
viability, T/C [15]: 60%
viability, T/C [16]: 49.9%
viability, T/C [17]: 36%
viability, T/C [18]: 35.2%
viability, T/C [19]: 86.5%
viability, T/C [20]: 68.5%
viability, T/C [21]: 60.4%
viability, T/C [22]: 40%
viability, T/C [23]: 36.5%
viability, T/C [24]: 34.7%
viability, T/C [25]: 72.3%
viability, T/C [26]: 80.5%
viability, T/C [27]: 41.6%
viability, T/C [28]: 36%
viability, T/C [29]: 38%
viability, T/C [30]: 33.4%
viability, T/C [31]: 79.1%
viability, T/C [32]: 66%
viability, T/C [33]: 49.1%
viability, T/C [34]: 40.9%
viability, T/C [35]: 37.9%
viability, T/C [36]: 33.3%
